Values after ≈ are worked out from the molar mass of the structure shown. Where two headings read alike, the source gives them in different places.
Test system: Mycobacterium tuberculosis strain H37Rv
Assay: Test 2: MIC determination against M. tuberculosis, resazurin fluorescence
Assay type: cell-based
Settings: Test 2, M. tuberculosis H37Rv; for MIC90: read-out: Bacterial activity MIC90; for IC50: read-out: Bacterial activity pMIC50 (converted)
[1] = Mycobacterium tuberculosis, H37RV

| SMILES | MIC90 [1] [µM] | IC50 [1] [pM] | Bacterial activity pMIC50 | MIC90 [µM] |
| --- | --- | --- | --- | --- |
| CCc1nc2n(c1C(=O)NCc1ccc(-c3nc4n(n3)CC[C@H](C(F)(F)F)C4)cc1)C[C@H](C)CC2 (single isomer, unassigned) [Compound 65] | 0.039 (≈ 0.019 µg/mL) | 13500 |  |  |
| CCc1nc2n(c1C(=O)NCc1ccc(-c3nc4n(n3)CC[C@@H](C(F)(F)F)C4)cc1)CC[C@H](C)C2 (single isomer, unassigned) [Compound 66] | 0.24 (≈ 0.117 µg/mL) | 51300 |  |  |
| CCc1nc2n(c1C(=O)NCc1ccc(-c3nc4n(n3)CC[C@H](C(F)(F)F)C4)cc1)CC[C@@H](C)C2 (single isomer, unassigned) [Compound 67] | 0.18 (≈ 0.0876 µg/mL) | 40700 |  |  |
| CCc1nc2n(c1C(=O)NCc1ccc(-c3nc4n(n3)CC[C@H](C(F)(F)F)C4)cc1)CC[C@H](C)C2 (single isomer, unassigned) [Compound 68] | 0.23 (≈ 0.112 µg/mL) | 47900 |  |  |
| CCc1nc2n(c1C(=O)NCc1ccc(-c3nc4n(n3)CC[C@H](C(F)(F)F)C4)cc1)C[C@@H](C)CC2 (single isomer, unassigned) [Compound 69] |  |  | 7.95 | 0.031 (≈ 0.0151 µg/mL) |
| CCc1nc2n(c1C(=O)NCc1ccc(-c3nc4n(n3)CC[C@@H](C(F)(F)F)C4)cc1)CC[C@@H](C)C2 (single isomer, unassigned) [Compound 70] | 0.23 (≈ 0.112 µg/mL) | 56200 |  |  |
| CCc1nc2n(c1C(=O)NCc1ccc(-c3nc4n(n3)CC[C@@H](C(F)(F)F)C4)cc1)C[C@H](C)CC2 (single isomer, unassigned) [Compound 71] | 0.024 (≈ 0.0117 µg/mL) | 9550 |  |  |
| CCc1nc2n(c1C(=O)NCc1ccc(-c3nc4n(n3)CC[C@@H](C(F)(F)F)C4)cc1)C[C@@H](C)CC2 (single isomer, unassigned) [Compound 72] | 0.042 (≈ 0.0204 µg/mL) | 13800 |  |  |
| CCc1nc2n(c1C(=O)NCc1ccc(-c3nc4n(n3)CC[C@H](C(F)(F)F)C4)cc1)C[C@@H](C)CC2 (single isomer, unassigned) [Compound 75] |  |  | 7.48 | 0.086 (≈ 0.0418 µg/mL) |
| CCc1nc2n(c1C(=O)NCc1ccc(-c3nc4n(n3)CC[C@@H](C(F)(F)F)C4)c(F)c1)CCCC2 (single isomer, unassigned) [Compound 76] |  |  | 7.55 | 0.09 (≈ 0.0441 µg/mL) |
| CCc1nc2ccccn2c1C(=O)NCc1ccc(-c2nc3n(n2)CC[C@@H](C(F)(F)F)C3)c(F)c1 (single isomer, unassigned) [Compound 78] |  |  | 8.08 | 0.028 (≈ 0.0136 µg/mL) |
| CCc1nc2ccccn2c1C(=O)NCc1ccc(-c2nc3n(n2)CC[C@H](C(F)(F)F)C3)c(F)c1 (single isomer, unassigned) [Compound 79] |  |  | 7.99 | 0.035 (≈ 0.017 µg/mL) |
| CCc1nn2c(c1C(=O)NCc1ccc(-c3nc4n(n3)CC[C@H](C(F)(F)F)C4)cc1)C[C@H](C)CC2 (single isomer, unassigned) [Compound 81] | 0.19 (≈ 0.0924 µg/mL) | 57500 |  |  |
| CCc1nn2c(c1C(=O)NCc1ccc(-c3nc4n(n3)CC[C@@H](C(F)(F)F)C4)cc1)C[C@@H](C)CC2 (single isomer, unassigned) [Compound 82] | 0.087 (≈ 0.0423 µg/mL) | 30900 |  |  |
| CCc1nn2c(c1C(=O)NCc1ccc(-c3nc4n(n3)CC[C@@H](C(F)(F)F)C4)cc1)C[C@H](C)CC2 (single isomer, unassigned) [Compound 83] | 0.23 (≈ 0.112 µg/mL) | 63100 |  |  |
| CCc1nc2ncc(C)cn2c1C(=O)NCc1ccc(-c2nc3n(n2)CCC(C)C3)cc1 (single isomer, unassigned) [Compound 94] |  |  | 7.86 | 0.039 (≈ 0.0168 µg/mL) |
| CCc1nc2ncc(C)cn2c1C(=O)NCc1ccc(-c2nc3n(n2)CC[C@@H](C(C)(F)F)C3)cc1 (single isomer, unassigned) [Compound 104] |  |  | 8.25 | 0.015 (≈ 0.00719 µg/mL) |
| CCc1nc2ncc(C)cn2c1C(=O)NCc1ccc(-c2nc3n(n2)CC[C@H](C(C)(F)F)C3)cc1 (single isomer, unassigned) [Compound 105] |  |  | 8.24 | 0.014 (≈ 0.00671 µg/mL) |
| CCc1nc2ncc(C)cn2c1C(=O)NCc1ccc(-c2cn3c(n2)CC(COC)CC3)cc1 (single isomer, unassigned) [Compound 118] |  |  | 7.48 | 0.083 (≈ 0.0381 µg/mL) |
| CCc1nc2n(c1C(=O)NCc1ccc(-c3nc4n(n3)CC[C@H](C(F)(F)F)C4)cc1)CC[C@@H](O)C2 (single isomer, unassigned) [Compound 131] | > 0.5 | > 501000 |  |  |
| CCc1nc2n(c1C(=O)NCc1ccc(-c3nc4n(n3)CC[C@H](C(F)(F)F)C4)cc1)CC[C@H](O)C2 (single isomer, unassigned) [Compound 132] | > 0.45 | > 269000 |  |  |
| CCc1nc2n(c1C(=O)NCc1ccc(-c3nc4n(n3)CC[C@H](C(F)(F)F)C4)cc1)CC[C@H](OC)C2 (single isomer, unassigned) [Compound 135] | > 0.44 | > 224000 |  |  |
| CCc1nc2n(c1C(=O)NCc1ccc(-c3nc4n(n3)CC[C@H](C(F)(F)F)C4)cc1)CC[C@@H](C(F)(F)F)C2 (single isomer, unassigned) [Compound 136] | > 0.5 | > 501000 |  |  |
| CCc1nc2n(c1C(=O)NCc1ccc(-c3nc4n(n3)CC[C@H](C(F)(F)F)C4)cc1)CC[C@H](C(F)(F)F)C2 (single isomer, unassigned) [Compound 137] | > 0.5 | > 501000 |  |  |
| CCc1nc2n(c1C(=O)NCc1ccc(-c3nc4n(n3)CC[C@H](C(F)(F)F)C4)cc1)CC[C@@H](OC)C2 (single isomer, unassigned) [Compound 139] | > 0.45 | > 182000 |  |  |

| SMILES | MIC90 [1] [µM] | IC50 [1] [pM] | Bacterial activity pMIC50 | MIC90 [µM] |
| --- | --- | --- | --- | --- |
| CCc1nc2ncc(C(F)(F)F)cn2c1C(=O)NCc1ccc(-c2nc3n(n2)CC[C@H](C)C3)cc1 (single isomer, unassigned) [Compound 191] | > 0.5 | > 501000 |  |  |
| CCc1nc2ncc(C)cn2c1C(=O)NCc1ccc(-c2nc3n(n2)CCC(C(F)(F)F)C3)nn1 (stereo not shown) [Compound 41] | > 0.5 | > 501000 |  |  |
| CCc1nc2ncc(C)cn2c1C(=O)NCc1ccc(-c2nc3n(n2)CCC(C(F)(F)F)C3)nc1 (stereo not shown) [Compound 43] | 0.37 (≈ 0.179 µg/mL) | 155000 |  |  |
| CCc1nc2ncc(C)cn2c1C(=O)NCc1cc(C)c(-c2nc3n(n2)CCC(C(F)(F)F)C3)c(F)c1 (stereo not shown) [Compound 44] | 0.21 (≈ 0.108 µg/mL) | 45700 |  |  |
| CCc1nc2ncc(C)cn2c1C(=O)NCc1cnc(-c2nc3n(n2)CCC(C(F)(F)F)C3)c(F)c1 (stereo not shown) [Compound 45] | 1.05 (≈ 0.528 µg/mL) | 245000 |  |  |
| CCc1nc2ncc(C)cn2c1C(=O)NCc1cnc(-c2nc3n(n2)CCC(C(F)(F)F)C3)c(C)c1 (stereo not shown) [Compound 46] | > 0.5 | > 501000 |  |  |
| O=C(NCc1cnc(-c2nc3n(n2)CCC(C(F)(F)F)C3)c(F)c1)c1c(C(F)(F)F)nc2ccccn12 (stereo not shown) [Compound 47] | > 0.5 | > 501000 |  |  |
| CCc1nc2ncc(OC)cn2c1C(=O)NCc1ccc(-c2nc3n(n2)CC[C@@H](C(F)(F)F)C3)cc1 [Compound 48] | 0.026 (≈ 0.013 µg/mL) | 8320 |  |  |
| CCc1nc2ccc(F)cn2c1C(=O)NCc1ccc(-c2nc3n(n2)CC[C@@H](C(F)(F)F)C3)cc1 [Compound 52] | 0.16 (≈ 0.0778 µg/mL) | 41700 |  |  |
| O=C(NCc1ccc(-c2nc3n(n2)CC[C@@H](C(F)(F)F)C3)cc1)c1c(C(F)(F)F)nc2ncccn12 [Compound 53] | 0.036 (≈ 0.0183 µg/mL) | 11000 |  |  |
| O=C(NCc1ccc(-c2nc3n(n2)CC[C@@H](C(F)(F)F)C3)cc1)c1c(C(F)(F)F)nc2n1CCCC2 [Compound 54] | 0.22 (≈ 0.113 µg/mL) | 72400 |  |  |
| CCc1nc2ccccn2c1C(=O)NCc1ccc(-c2nc3n(n2)CC[C@@H](C(F)(F)F)C3)cc1 [Compound 55] | 0.0086 (≈ 0.00403 µg/mL) | 2950 |  |  |
| CCc1nc2ccccn2c1C(=O)NCc1ccc(-c2nc3n(n2)CC[C@H](C(F)(F)F)C3)cc1 [Compound 57] | 0.022 (≈ 0.0103 µg/mL) | 6920 |  |  |
| O=C(NCc1ccc(-c2nc3n(n2)CC[C@H](C(F)(F)F)C3)cc1)c1c(C(F)(F)F)nc2n1CCCC2 [Compound 58] | 0.39 (≈ 0.2 µg/mL) | 95500 |  |  |
| O=C(NCc1ccc(-c2nc3n(n2)CC[C@H](C(F)(F)F)C3)cc1)c1c(C(F)F)nc2ccccn12 [Compound 60] | 0.067 (≈ 0.0329 µg/mL) | 17400 |  |  |
| O=C(NCc1ccc(-c2nc3n(n2)CC[C@@H](C(F)(F)F)C3)cc1)c1c(C(F)F)nc2ccccn12 [Compound 61] | 0.036 (≈ 0.0177 µg/mL) | 11000 |  |  |
| CCc1nc2ccc(C(F)(F)F)cn2c1C(=O)NCc1ccc(-c2nc3n(n2)CC[C@@H](C(F)(F)F)C3)cc1 [Compound 63] | > 0.46 | > 224000 |  |  |
| CCc1nc2ccc(C(F)(F)F)cn2c1C(=O)NCc1ccc(-c2nc3n(n2)CC[C@H](C(F)(F)F)C3)cc1 [Compound 64] | > 0.5 | > 501000 |  |  |
| CCc1nc2ncc(OC(F)(F)F)cn2c1C(=O)NCc1ccc(-c2nc3n(n2)CC[C@H](C(F)(F)F)C3)cc1 [Compound 84] | > 0.38 | > 93300 |  |  |
| CCc1nc2ncc(OC(F)(F)F)cn2c1C(=O)NCc1ccc(-c2nc3n(n2)CC[C@@H](C(F)(F)F)C3)cc1 [Compound 85] | > 0.5 | > 501000 |  |  |
| CCc1nc2ncccn2c1C(=O)NCc1ccc(-c2nc3n(n2)CC[C@@H](C(F)(F)F)C3)c(C)c1 [Compound 86] |  |  | 6.98 | 0.44 (≈ 0.213 µg/mL) |
| CCc1nc2ncccn2c1C(=O)NCc1ccc(-c2nc3n(n2)CC[C@H](C(F)(F)F)C3)c(C)c1 [Compound 87] |  |  | 6.97 | 0.47 (≈ 0.227 µg/mL) |
| CCc1nc2ncc(C)cn2c1C(=O)NCc1ccc(-c2cn3c(n2)CCCC3)cc1 [Compound 88] | 0.099 (≈ 0.041 µg/mL) | 37200 |  |  |
| CCc1nc2nc(C)c(Cl)cn2c1C(=O)NCc1ccc(-c2cn3c(n2)CC(C(F)(F)F)CC3)cc1 (stereo not shown) [Compound 90] | 0.15 (≈ 0.0775 µg/mL) | 60300 |  |  |
| CCc1nc2nc(C)ccn2c1C(=O)NCc1ccc(-c2nc3n(n2)CCC(C)C3)cc1 (stereo not shown) [Compound 92] | 0.2 (≈ 0.0859 µg/mL) | 61700 |  |  |
